# Assay results taken from patent US7601726B2, “Substituted pyrazolo[3,4-d]pyrimidines as p38 MAP kinase inhibitors” (Roche Palo Alto LLC, priority 2005, dated 2009).
# Columns and labels:
# p38 MAP kinase = biological target: T1, p38 MAP kinase (Homo sapiens, UniProt Q16539); experiment: p38 (MAP) kinase in vitro assay (transfer of γ-phosphate from γ-33P-ATP to Myelin Basic Protein); format: biochemical; conditions: phosphorylated recombinant p38 MAP kinase, MBP substrate, 30° C.
# T1 construct: made in house; host or cells: E. coli (co-expressed with SEK-1 and MEKK)
# Description: This example illustrates a p38 (MAP) kinase in vitro assay useful for evaluating the compounds of the invention.
# The p38 MAP kinase inhibitory activity of compounds of this invention in vitro was determined by measuring the transfer of the γ-phosphate from γ-^33P-ATP by p-38 kinase to Myelin Basic Protein (MBP), using a minor modification of the method described in Ahn, et al., J. Biol. Chem. 266:4220-4227 (1991).
# The phosphorylated form of the recombinant p38 MAP kinase was co-expressed with SEK-1 and MEKK in E. Coli (see, Khokhlatchev, et al., J. Biol. Chem. 272:11057-11062 (1997)) and then purified by affinity chromatography using a Nickel column.
# The phosphorylated p38 MAP kinase was diluted in kinase buffer (20 mM 3-(N-morpholino)propanesulfonic acid, pH 7.2, 25 mM β-glycerol phosphate, 5 mM ethylene glycol-bis(beta-aminoethyl ether)-N,N,N′,N′-tetraacetic acid, 1 mM sodium ortho-vanadate, 1 mM dithiothreitol, 40 mM magnesium chloride). Test compound dissolved in DMSO or only DMSO (control) was added and the samples were incubated for 10 min at 30° C. The kinase reaction was initiated by the addition of a substrate cocktail containing MBP and γ-^33P-ATP. […] The phosphorylated MBP was then separated from the residual γ-^33P-ATP using a phosphocellulose membrane (Millipore, Bedfrod, Mass.) and quantitated using a scintillation counter (Packard, Meriden, Conn.).
# T1 sequence (Q16539 whole entry): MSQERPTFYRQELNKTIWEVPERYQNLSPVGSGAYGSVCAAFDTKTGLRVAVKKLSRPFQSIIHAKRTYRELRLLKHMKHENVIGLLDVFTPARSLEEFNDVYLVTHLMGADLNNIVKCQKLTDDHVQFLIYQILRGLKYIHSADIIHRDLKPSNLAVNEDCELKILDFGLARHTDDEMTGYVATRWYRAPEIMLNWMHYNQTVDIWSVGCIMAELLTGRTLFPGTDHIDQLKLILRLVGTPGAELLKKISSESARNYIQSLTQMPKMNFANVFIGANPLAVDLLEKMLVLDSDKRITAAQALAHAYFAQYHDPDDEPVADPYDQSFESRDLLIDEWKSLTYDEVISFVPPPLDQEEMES
melting point [°C],IC50 (p38 MAP kinase) [nM],SMILES
93.3 to 94.6,–,"OC[C@H](O)COc1cc(Oc2ccc(F)cc2F)cc2[nH]nc(-c3ccccc3Cl)c12 (stereo in doubt) [Table 2 #1, 3-[3-(2-Chloro-phenyl)-6-(2,4-difluoro-phenoxy)-1H-indazol-4-yloxy]-propane-1,2-diol]"
–,~16,"O=C(Nc1n[nH]c2nc(Oc3ccc(F)cc3F)ncc12)c1ccccc1Br [2-Bromo-N-[6-(2,4-difluoro-phenoxy)-1H-pyrazolo[3,4-d]pyrimidin-3-yl]-benzamide]"
226 to 226.9,–,"CCS(=O)(=O)Nc1n[nH]c2nc(Oc3ccc(F)cc3F)ncc12 [Table 1 #14, Ethanesulfonic acid [6-(2,4-difluoro-phenoxy)-1H-pyrazolo[3,4-d]pyrimidin-3-yl]-amide]"
270.1 to 272,–,"O=C(Nc1n[nH]c2nc(Oc3ccc(F)cc3F)ncc12)OCc1ccccc1 [Table 1 #42, [6-(2,4-Difluoro-phenoxy)-1H-pyrazolo[3,4-d]pyrimidin-3-yl]-carbamic acid benzyl ester]"
206.3 to 207.51,–,"O=C(Nc1n[nH]c2nc(Oc3ccc(F)cc3F)ncc12)C1CCCC1 [Table 1 #38, Cyclopentanecarboxylic acid [6-(2,4-difluoro-phenoxy)-1H-pyrazolo[3,4-d]pyrimidin-3-yl]-amide]"
–,~4,"OC[C@H](O)CNc1cc(Oc2ccc(F)cc2F)cc2[nH]nc(-c3ccccc3Cl)c12 (stereo in doubt) [3-[3-(2-Chloro-phenyl)-6-(2,4-difluoro-phenoxy)-1H-indazol-4-ylamino]-propane-1,2-diol]"
211.3 to 214.4,–,"CC(C)Nc1n[nH]c2nc(Oc3ccc(F)cc3F)ncc12 [Table 1 #1, [6-(2,4-Difluoro-phenoxy)-1H-pyrazolo[3,4-d]pyrimidin-3-yl]-isopropyl-amine]"
